What follows are compounds tested against T1, PI3Kγ (p101/p110γ protein) (Homo sapiens, UniProt P48736) (assay: PI3Kγ In Vitro Kinase Assay). Details: purified recombinant p101/p110γ with G protein β1/γ2 subunits; 20 μM ATP, 25 μM PIP2; 20 minutes at room temperature.
T1 construct: HA; made in house; host or cells: Spodoptera frugiperda (Sf9) cells, baculovirus co-infection
Format: biochemical
Experimental: Spodtera frugiperda cells, grown in ESF921 media, were coinfected with baculovirus expressing a glu-tagged p101 and baculovirus expressing an HA-tagged p110γ, at a 3:1 ratio of p101 baculovirus to p110γ baculovirus. Sf9 cells were grown to 1×10^7 total cells/mL in 10L bioreactors and harvested 48-72 hours post infection. Samples of infected cells were then tested for expression of p101/p110γ PI3 kinase by immunoprecipitation and Western Blot analysis methods (see below). […] NaCl was added to 150 mM, and sodium cholate was added to 1% and mixed for another 45 minutes. The lysates were clarified by centrifugation for 25 minutes at 14,000 rpm. The lysates were then loaded over anti-glu-linked Protein-G Sepaharose beads (Covance Research Products, Richmond, Calif.) using 20 mL resin/50 g cell paste. […] PI3Kγ was eluted with 6 column volumes of wash buffer that contain 100 μg/mL of a peptide that competes for binding of the glu tag. […] The fractions were stored at -80° C. until further use. Spodtera frugiperda cells were coinfected with baculovirus expressing a glu-tagged G protein β1 and baculovirus expressing a G protein […] at a 1:1 ratio of glu-tagged G protein β1 baculovirus to G protein β2 baculovirus. Sf9 cells are grown in 10 L bioreactors and harvested 48-72 hours post infection. Samples of infected cells were tested for G protein β1/β2 expression by Western Blot analysis, as described below. Cell lysates were homogenized and loaded onto a column of glu-tagged beads as in Biological Example 1 and competed off the column with a glu peptide as described in Biological Example 1. The inhibitory properties of the compounds in Table 1 were assayed in an in vitro PI3K assay. In a 96-well polypropylene plate, each well was spotted with 2 μL of […] the desired final concentration of compound in DMSO. Purified recombinant p101/p110γ protein (0.03 μg; 2.7 nM) and G protein β1/γ2 subunits (0.09 μg; 57.7 nM) for each reaction was combined in the assay buffer (30 mM HEPES, 100 mM NaCl, 1 mM EGTA, and 1 mM DTT). ATP and [γ-^32P-ATP] (0.09 μCi) were added to this mixture so that the final ATP concentration in the reaction was 20 μM. Lipid micelles were formed by sonicating phosphatidylinositol-4,5-diphosphate (PIP2), phosphatidylethanolamine (PE), and Na-cholate in the assay buffer for 10 minutes, adding MgCL2 and incubating on ice for 20 minutes, for final concentrations of 25 μM PIP2, 300 [M PE, 0.02% Na-cholate, and 10 mM MgCl2 in the reaction. The reactions were started by adding equal volumes lipid and enzyme mixture in a total volume of 50 μL, allowed to run for 20 minutes at room temperature, and stopped with 100 μL 75 mM H3PO4. The lipid product was transferred to a glass fiber filter plate and washed with 75 mM H3PO4 several times. The presence of radioactive lipid product (PIP3) was measured by adding Wallac Optiphase mix to each well and counting in a Wallac 1450 Trilux plate reader (PerkinElmer Life Sciences Inc., Boston, Mass. 02118).

T1 sequence (P48736 whole entry, species assumed): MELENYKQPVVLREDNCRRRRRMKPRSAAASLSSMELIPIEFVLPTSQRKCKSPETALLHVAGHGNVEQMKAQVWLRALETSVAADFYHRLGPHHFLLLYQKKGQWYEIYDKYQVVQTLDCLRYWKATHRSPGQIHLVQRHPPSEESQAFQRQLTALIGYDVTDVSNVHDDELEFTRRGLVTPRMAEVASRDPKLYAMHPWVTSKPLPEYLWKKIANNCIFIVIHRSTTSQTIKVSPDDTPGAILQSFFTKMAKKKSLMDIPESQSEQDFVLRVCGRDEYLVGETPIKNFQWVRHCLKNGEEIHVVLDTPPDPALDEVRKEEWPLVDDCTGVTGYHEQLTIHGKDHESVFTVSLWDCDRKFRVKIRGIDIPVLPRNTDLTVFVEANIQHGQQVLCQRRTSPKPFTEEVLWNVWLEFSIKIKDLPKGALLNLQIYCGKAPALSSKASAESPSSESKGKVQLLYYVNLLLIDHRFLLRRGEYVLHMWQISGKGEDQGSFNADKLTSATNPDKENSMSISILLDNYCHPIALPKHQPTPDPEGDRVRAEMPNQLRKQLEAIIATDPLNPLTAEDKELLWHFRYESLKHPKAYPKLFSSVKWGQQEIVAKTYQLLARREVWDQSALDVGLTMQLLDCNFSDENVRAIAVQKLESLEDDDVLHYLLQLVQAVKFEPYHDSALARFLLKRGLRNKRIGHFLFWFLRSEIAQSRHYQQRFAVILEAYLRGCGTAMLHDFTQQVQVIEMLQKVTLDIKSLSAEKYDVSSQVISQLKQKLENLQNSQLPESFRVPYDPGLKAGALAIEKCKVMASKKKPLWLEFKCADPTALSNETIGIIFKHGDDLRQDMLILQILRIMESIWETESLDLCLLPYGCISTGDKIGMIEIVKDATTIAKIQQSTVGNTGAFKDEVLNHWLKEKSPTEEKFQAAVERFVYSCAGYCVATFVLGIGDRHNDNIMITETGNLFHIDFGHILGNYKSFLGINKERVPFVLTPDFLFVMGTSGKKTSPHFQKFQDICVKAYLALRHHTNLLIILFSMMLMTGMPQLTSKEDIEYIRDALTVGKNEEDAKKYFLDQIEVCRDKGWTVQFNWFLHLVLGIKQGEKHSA
T1 sequence (Q8WYR1 whole entry partner, species assumed): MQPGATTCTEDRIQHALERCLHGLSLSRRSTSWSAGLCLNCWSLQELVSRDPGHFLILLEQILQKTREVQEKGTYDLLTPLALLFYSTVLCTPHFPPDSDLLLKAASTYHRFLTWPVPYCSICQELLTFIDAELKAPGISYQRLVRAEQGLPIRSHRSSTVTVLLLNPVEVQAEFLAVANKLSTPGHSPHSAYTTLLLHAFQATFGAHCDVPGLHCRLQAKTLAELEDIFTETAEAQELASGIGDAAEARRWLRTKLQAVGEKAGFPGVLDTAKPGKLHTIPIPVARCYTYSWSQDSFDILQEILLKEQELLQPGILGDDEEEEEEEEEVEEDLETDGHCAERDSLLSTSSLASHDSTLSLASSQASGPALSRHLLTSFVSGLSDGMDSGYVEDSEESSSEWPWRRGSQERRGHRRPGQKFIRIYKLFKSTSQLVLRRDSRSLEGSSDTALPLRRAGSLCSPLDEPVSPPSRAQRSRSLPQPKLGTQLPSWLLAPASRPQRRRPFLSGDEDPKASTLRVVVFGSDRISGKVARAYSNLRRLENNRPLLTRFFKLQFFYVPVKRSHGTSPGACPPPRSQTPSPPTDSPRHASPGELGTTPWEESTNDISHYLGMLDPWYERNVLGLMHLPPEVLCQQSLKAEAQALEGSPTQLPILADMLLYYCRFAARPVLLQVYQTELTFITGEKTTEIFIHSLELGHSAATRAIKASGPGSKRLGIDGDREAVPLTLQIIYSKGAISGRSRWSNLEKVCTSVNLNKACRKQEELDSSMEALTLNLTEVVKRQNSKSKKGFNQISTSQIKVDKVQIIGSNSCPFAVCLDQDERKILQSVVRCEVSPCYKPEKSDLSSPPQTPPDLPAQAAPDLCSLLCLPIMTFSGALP

Row | Compound | IC50
1 | 4-(3-Chloro-4-fluoro-benzyl)-8-fluoro-6-(4-oxo-2-thioxo-thiazolidin-5-ylidenemethyl)-4H-benzo[1,4]oxazin-3-one [Example 309] | 2 nM
2 | 4-Ethyl-6-(4-oxo-2-thioxo-thiazolidin-5-ylidenemethyl)-4H-benzo[1,4]oxazin-3-one [Example 139] | 42 nM
3 | 4-Methyl-6-(4-oxo-2-thioxo-oxazolidin-5-ylidenemethyl)-4a,8a-dihydro-4H-benzo[1,4]oxazin-3-one, Potassium Salt [Example 204] | 16 nM
4 | 5-{4-[3-(4-Methoxy-phenyl)-propyl]-3-oxo-3,4-dihydro-2H-benzo[1,4]oxazin-6-ylmethylene}-thiazolidine-2,4-dione [Example 125] | 18 nM
5 | 8-Fluoro-4-(3-morpholin-4-yl-propyl)-6-(4-oxo-2-thioxo-thiazolidin-5-ylidenemethyl)-4H-benzo[1,4]oxazin-3-one [Example 242] | 55 nM
6 | O=C1COc2ccc(C=C3SC(=S)NC3=O)cc2N1 [Example 1, 6-(4-Oxo-2-thioxo-thiazolidin-5-ylidenemethyl)-4H-1,4-benzoxazin-3-one] | 78 nM
7 | CN1C(=O)COc2ccc(C=C3SC(=S)NC3=O)cc21 [Example 2, 4-Methyl-6-(4-oxo-2-thioxo-thiazolidin-5-ylidenemethyl)-4H-1,4-benzoxazin-3-one] | 45 nM
8 | O=C(O)CN1C(=O)COc2ccc(C=C3SC(=S)NC3=O)cc21 [Example 3, [3-Oxo-6-(4-oxo-2-thioxo-thiazolidin-5-ylidenemethyl)-2,3-dihydro-1,4-benzoxazin-4-yl]-acetic acid] | 635 nM
9 | O=C1NC(=S)SC1=Cc1ccc2c(c1)N(Cc1ccccc1)C(=O)CO2 [Example 4, 4-Benzyl-6-(4-oxo-2-thioxo-thiazolidin-5-ylidenemethyl)-4H-1,4-benzoxazin-3-one] | 23 nM
10 | O=C1NC(=S)SC1=Cc1ccc2c(c1)N(CCc1ccccc1)C(=O)CO2 [Example 5, 6-(4-Oxo-2-thioxo-thiazolidin-5-ylidenemethyl)-4-phenethyl-4H-1,4-benzoxazin-3-one] | 25 nM
11 | COc1cc(C=C2SC(=S)NC2=O)cc2c1OCC(=O)N2 [Example 6, 8-Methoxy-6-(4-oxo-2-thioxo-thiazolidin-5-ylidenemethyl)-4H-1,4-benzoxazin-3-one] | 560 nM
12 | COC(=O)CN1C(=O)COc2ccc(C=C3SC(=S)NC3=O)cc21 [Example 7, [3-Oxo-6-(4-oxo-2-thioxo-thiazolidin-5-ylidenemethyl)-2,3-dihydro-1,4-benzoxazin-4-yl]-acetic acid methyl ester] | 84 nM
13 | COC(=O)c1cccc(CN2C(=O)COc3ccc(C=C4SC(=S)NC4=O)cc32)c1 [Example 8, 3-[3-Oxo-6-(4-oxo-2-thioxo-thiazolidin-5-ylidenemethyl)-2,3-dihydro-1,4-benzoxazin-4-ylmethyl]-benzoic acid methyl ester] | 81 nM
14 | O=C1NC(=S)SC1=Cc1ccc2c(c1)N(Cc1ccc(-c3ccccc3)cc1)C(=O)CO2 [Example 9, 4-Biphenyl-4-ylmethyl-6-(4-oxo-2-thioxo-thiazolidin-5-ylidenemethyl)-4H-1,4-benzoxazin-3-one] | 61 nM
15 | O=C(O)CN1C(=O)C(=Cc2ccc3c(c2)NC(=O)CO3)SC1=S [Example 10, [4-Oxo-5-(3-oxo-3,4-dihydro-2H-1,4-benzoxazin-6-ylmethylene)-2-thioxo-thiazolidin-3-yl]-acetic acid; compound with trifluoro-acetic acid] | 3630 nM
16 | O=C1NC(=S)SC1=Cc1ccc2c(c1)N(Cc1ccc3ccccc3c1)C(=O)CO2 [Example 11, 4-Naphthalen-2-ylmethyl-6-(4-oxo-2-thioxo-thiazolidin-5-ylidenemethyl)-4H-1,4-benzoxazin-3-one] | 61 nM

Row | Compound | IC50
17 | O=C1NC(=S)SC1=Cc1ccc2c(c1)N(Cc1cccnc1)C(=O)CO2 [Example 12, 6-(4-Oxo-2-thioxo-thiazolidin-5-ylidenemethyl)-4-pyridin-3-ylmethyl-4H-1,4-benzoxazin-3-one] | 27 nM
18 | C[C@@H]1Oc2ccc(C=C3SC(=S)NC3=O)cc2NC1=O [Example 13, (S)-2-Methyl-6-(4-oxo-2-thioxo-thiazolidin-5-ylidenemethyl)-4H-1,4-benzoxazin-3-one] | 745 nM
19 | Cc1cc(C)cc(CN2C(=O)COc3ccc(C=C4SC(=S)NC4=O)cc32)c1 [Example 14, 4-(3,5-Dimethyl-benzyl)-6-(4-oxo-2-thioxo-thiazolidin-5-ylidenemethyl)-4H-1,4-benzoxazin-3-one] | 5 nM
20 | O=C1NC(=S)SC1=Cc1ccc2c(c1)N(Cc1cccc(OCc3ccccc3)c1)C(=O)CO2 [Example 15, 4-(3-Benzyloxy-benzyl)-6-(4-oxo-2-thioxo-thiazolidin-5-ylidenemethyl)-4H-1,4-benzoxazin-3-one] | 13 nM
21 | Cc1cc(C=C2SC(=S)NC2=O)c(C)c2c1OCC(=O)N2 [Example 16, 5,8-Dimethyl-6-(4-oxo-2-thioxo-thiazolidin-5-ylidenemethyl)-4H-benzo[1,4]oxazin-3-one] | 328 nM
22 | O=C1NC(=S)SC1=Cc1ccc2c(c1)N(Cc1cccc(C(=O)O)c1)C(=O)CO2 [Example 17, 3-[3-Oxo-6-(4-oxo-2-thioxo-thiazolidin-5-ylidenemethyl)-2,3-dihydro-1,4-benzoxazin-4-ylmethyl]-benzoic acid] | 9 nM
23 | C[C@@H]1Oc2ccc(C=C3SC(=S)NC3=O)cc2N(Cc2ccccc2)C1=O [Example 18, (S)-4-Benzyl-2-methyl-6-(4-oxo-2-thioxo-thiazolidin-5-ylidenemethyl)-4H-1,4-benzoxazin-3-one] | 319 nM
24 | O=C1NC(=S)SC1=Cc1ccc2c(c1)N(Cc1ccc(CN3CCCCC3)cc1)C(=O)CO2 [Example 19, 4-(4-Piperidin-1-ylmethyl-benzyl)-6-(4-oxo-2-thioxo-thiazolidin-5-ylidenemethyl)-4H-1,4-benzoxazin-3-one] | 8 nM
25 | O=C1NC(=S)SC1=Cc1ccc2c(c1)N(Cc1ccc(CN3CCOCC3)cc1)C(=O)CO2 [Example 20, 4-(4-Morpholin-4-ylmethyl-benzyl)-6-(4-oxo-2-thioxo-thiazolidin-5-ylidenemethyl)-4H-1,4-benzoxazin-3-one] | 3 nM
26 | CCN(CC)Cc1ccc(CN2C(=O)COc3ccc(C=C4SC(=S)NC4=O)cc32)cc1 [Example 21, 4-(4-Diethylaminomethyl-benzyl)-6-(4-oxo-2-thioxo-thiazolidin-5-ylidenemethyl)-4H-1,4-benzoxazin-3-one] | 14 nM
27 | CC(=O)OCc1ccccc1CN1C(=O)COc2ccc(C=C3SC(=S)NC3=O)cc21 [Example 22, Acetic acid 2-[3-oxo-6-(4-oxo-2-thioxo-thiazolidin-5-ylidenemethyl)-2,3-dihydro-1,4-benzoxazin-4-ylmethyl]-benzyl ester] | 17 nM
28 | O=C1NC(=S)SC1=Cc1ccc2c(c1)N(Cc1ccc(OCc3ccccc3)cc1)C(=O)CO2 [Example 23, 4-(4-Benzyloxy-benzyl)-6-(4-oxo-2-thioxo-thiazolidin-5-ylidenemethyl)-4H-1,4-benzoxazin-3-one] | 5 nM
29 | O=C1NC(=S)SC1=Cc1ccc2c(c1)N(Cc1ccccc1CO)C(=O)CO2 [Example 24, 4-(2-Hydroxymethyl-benzyl)-6-(4-oxo-2-thioxo-thiazolidin-5-ylidenemethyl)-4H-1,4-benzoxazin-3-one] | 3 nM
30 | O=C1NC(=S)SC1=Cc1ccc2c(c1)N(Cc1ccc(Oc3cccc4ccccc34)cc1)C(=O)CO2 [Example 25, 4-[4-(Naphthalen-1-yloxy)-benzyl]-6-(4-oxo-2-thioxo-thiazolidin-5-ylidenemethyl)-4H-1,4-benzoxazin-3-one] | 8 nM
31 | COc1cc(CN2C(=O)COc3ccc(C=C4SC(=S)NC4=O)cc32)cc(OC)c1 [Example 26, 4-(3,5-Dimethoxy-benzyl)-6-(4-oxo-2-thioxo-thiazolidin-5-ylidenemethyl)-4H-1,4-benzoxazin-3-one] | 9 nM
